Assay results from ChEMBL document CHEMBL6153023, “Tubulin/HDAC dual-target inhibitors: Insights from design strategies, SARs, and therapeutic potential” (Eur J Med Chem, 2025).

Columns and labels:
MCF7 [1] = test: Antiproliferative activity against human MCF7 cells assessed as reduction in cell viability incubated for 72 hrs by MTT assay; assay type: functional, cell-based; conditions: MCF7, 72 h
HepG2 = test: Antiproliferative activity against human HepG2 cells assessed as reduction in cell viability incubated for 72 hrs by MTT assay; assay type: functional, cell-based; conditions: HepG2, 72 h
Tubulin [2] = test: Inhibition of tubulin polymerization (unknown origin); assay type: protein-complex assay, Homo sapiens
A549 [3] = test: Cytotoxicity against human A549 cells assessed as reduction in cell growth measured for 72 hrs by MTT assay; assay type: functional, cell-based; conditions: A549, 72 h
Histone deacetylase 1 [4] = target: T1, Histone deacetylase 1 (Homo sapiens, UniProt Q13547); test: Inhibition of human recombinant FLAG/His-tagged HDAC1 using fluorogenic substrate by fluorescence microplate reader assay
[5] = target: T2, Protein deacetylase HDAC6 (Homo sapiens, UniProt Q9UBN7); test: Inhibition of FLAG/His-tagged human recombinant HDAC6 extracted from baculovirus infected Sf9 cells […] by fluorescence based analysis
T2 sequence (Q9UBN7 whole entry): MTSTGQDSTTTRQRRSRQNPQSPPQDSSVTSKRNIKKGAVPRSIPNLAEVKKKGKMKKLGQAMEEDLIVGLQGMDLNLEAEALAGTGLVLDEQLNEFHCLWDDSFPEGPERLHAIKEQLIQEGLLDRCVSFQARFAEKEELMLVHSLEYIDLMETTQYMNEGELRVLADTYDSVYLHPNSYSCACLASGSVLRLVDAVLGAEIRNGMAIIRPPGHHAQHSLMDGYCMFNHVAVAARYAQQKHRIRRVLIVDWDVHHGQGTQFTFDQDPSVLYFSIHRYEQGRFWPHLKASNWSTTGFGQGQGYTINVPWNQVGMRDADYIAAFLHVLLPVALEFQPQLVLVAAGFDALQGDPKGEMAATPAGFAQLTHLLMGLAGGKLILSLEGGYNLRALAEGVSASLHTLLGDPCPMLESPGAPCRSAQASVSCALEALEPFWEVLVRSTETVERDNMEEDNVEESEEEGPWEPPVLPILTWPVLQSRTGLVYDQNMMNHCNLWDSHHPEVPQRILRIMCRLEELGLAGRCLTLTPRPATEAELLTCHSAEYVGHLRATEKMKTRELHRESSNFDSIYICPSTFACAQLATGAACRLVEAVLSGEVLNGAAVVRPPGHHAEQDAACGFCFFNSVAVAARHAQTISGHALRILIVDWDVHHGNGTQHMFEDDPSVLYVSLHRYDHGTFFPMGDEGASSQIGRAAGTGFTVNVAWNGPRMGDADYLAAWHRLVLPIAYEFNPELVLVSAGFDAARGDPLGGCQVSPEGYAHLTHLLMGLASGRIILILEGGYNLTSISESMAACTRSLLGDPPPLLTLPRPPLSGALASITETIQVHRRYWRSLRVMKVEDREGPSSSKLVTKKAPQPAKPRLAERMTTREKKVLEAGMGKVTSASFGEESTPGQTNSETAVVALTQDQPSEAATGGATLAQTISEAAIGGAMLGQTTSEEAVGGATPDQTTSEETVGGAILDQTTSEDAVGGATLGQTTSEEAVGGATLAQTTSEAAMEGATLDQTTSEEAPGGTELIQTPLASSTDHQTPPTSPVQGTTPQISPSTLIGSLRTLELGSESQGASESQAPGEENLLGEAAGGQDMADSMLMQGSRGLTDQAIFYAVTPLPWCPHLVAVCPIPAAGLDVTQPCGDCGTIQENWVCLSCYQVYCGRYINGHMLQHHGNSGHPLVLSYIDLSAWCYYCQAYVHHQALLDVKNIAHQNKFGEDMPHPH

Tubulin [6] = test: Inhibition of tubulin polymerization (unknown origin) by fluorescence based assay; assay type: protein-complex assay, Homo sapiens
UO-31 = test: Antiproliferative activity against human UO-31 cells assessed as reduction in cell viability by MTT assay; assay type: functional, cell-based
T47D = test: Antiproliferative activity against human T47D cells assessed as reduction in cell viability by MTT assay; assay type: functional, cell-based
[7] = Inhibition of bovine brain tubulin polymerization measured after 20 mins by spectrophotometric analysis; parameters: species or system Bos taurus
MGC-803 = test: Antiproliferative activity against human MGC-803 cells assessed as reduction in cell viability by MTT assay; assay type: functional, cell-based
KYSE-450 = test: Antiproliferative activity against human KYSE-450 cells assessed as reduction in cell viability by MTT assay; assay type: functional, cell-based
Histone deacetylase 1 [8] = target: T1, Histone deacetylase 1; test: Inhibition of HDAC1 (unknown origin)
HCT-116 [9] = test: Antiproliferative activity against human HCT-116 cells assessed as reduction in cell viability by MTT assay; assay type: functional, cell-based
518A2 = test: Antiproliferative activity against human 518A2 cells assessed as reduction in cell viability incubated for 72 hrs by MTT assay; assay type: functional, cell-based; conditions: 518A2, 72 h
A2780 = test: Antitumor activity against human A2780 cells xenografted in BALB/c nude mouse assessed as tumor growth inhibition at 25 mg/kg, ip administered once daily for 1 week relative to control; assay type: functional; conditions: A2780, 168 h, time 1 weeks, read-out: TGI
HCT-116 [10] = test: Antitumor activity against human HCT-116 cells xenografted in BALB/c nude mouse assessed as tumor growth inhibition at 25 mg/kg, ip administered once daily for 1 week relative to control; assay type: functional; conditions: HCT-116, 168 h, time 1 weeks, read-out: TGI
MCF7 [11] = test: Antitumor activity against human MCF7 cells xenografted in BALB/c nude mouse assessed as tumor growth inhibition at 25 mg/kg, ip administered once daily for 1 week relative to control; assay type: functional; conditions: MCF7, 168 h, time 1 weeks, read-out: TGI
Histone deacetylase 2 [12] = target: T3, Histone deacetylase 2 (Homo sapiens, UniProt Q92769); test: Inhibition of human recombinant HDAC2 extracted from baculovirus infected Insect cells using Ac-Lys-Tyr-Lys (acetyl)-AMC as substrate incubated for 24 hrs by fluorescence analysis; parameters: species or system Insect cell
Tubulin (Homo sapiens) = Tubulin (Homo sapiens) (UniProt P68371+Q9H4B7+P0DPH7+P68366+Q13509+Q71U36+P04350+Q3ZCM7+P07437+P68363+Q9BQE3+Q6PEY2+Q13885+Q9BVA1+Q9BUF5); test: Inhibition of tubulin polymerization (unknown origin) at 10 uM relative to control; assay type: protein-complex assay
[13] = target: T2, Protein deacetylase HDAC6; test: Inhibition of human recombinant HDAC6 using Boc-Lys(Ac)-AMC as substrate preincubated for 15 mins followed by substrate addition and measured after 60 mins by fluorescence based microplate reader analysis
Histone deacetylase 2 [14] = target: T3, Histone deacetylase 2; test: Inhibition of human recombinant HDAC2 extracted from baculovirus infected Sf9 insect cells using Ac-Leu-Gly-Lys(Ac)-AMC as substrate preincubated for 30 mins followed by substrate addition measured after 1 hr by fluorescence based analysis
Homo sapiens [15] = organism: Homo sapiens; test: Selectivity index, ratio of IC50 for inhibition of human recombinant HDAC2 to IC50 for inhibition of human recombinant HDAC6
Homo sapiens [16] = organism: Homo sapiens; test: Selectivity index, ratio of IC50 for inhibition of human recombinant HDAC1 to IC50 for inhibition of human recombinant HDAC6
Histone deacetylase 1 [17] = target: T1, Histone deacetylase 1; test: Inhibition of human recombinant HDAC1 using Boc-Lys(Ac)-AMC or Boc-Lys(Tfa)-AMC as substrate incubated for 1 hr by fluorescence based analysis
HL-60 = test: Antitumor activity against human HL-60 cells xenografted in nude mouse assessed as inhibition of tumor growth at 100 mg/kg, ip administered once daily for 7 days relative to control; assay type: functional; conditions: HL-60, 168 h, time 7 day, read-out: TGI
[18] = target: T2, Protein deacetylase HDAC6; test: Inhibition of HDAC6 (unknown origin)
A549 [19] = test: Antiproliferative activity against human A549 cells assessed as reduction in cell viability incubated for 48 hrs by MTT assay; assay type: functional, cell-based; conditions: A549, 48 h
HCT-116 [20] = test: Antiproliferative activity against human HCT-116 cells assessed as reduction in cell viability incubated for 48 hrs by MTT assay; assay type: functional, cell-based; conditions: HCT-116, 48 h
PC-3 [21] = test: Antitumor activity against human PC-3 cells xenografted in nude mouse assessed as inhibition of tumor growth at 100 mg/kg, ip administered once daily for 7 days relative to control; assay type: functional; conditions: PC-3, 168 h, time 7 day, read-out: TGI
PC-3 [22] = test: Antiproliferative activity against human PC-3 cells assessed as reduction in cell viability incubated for 48 hrs by MTT assay; assay type: functional, cell-based; conditions: PC-3, 48 h

T1 sequence (Q13547 whole entry): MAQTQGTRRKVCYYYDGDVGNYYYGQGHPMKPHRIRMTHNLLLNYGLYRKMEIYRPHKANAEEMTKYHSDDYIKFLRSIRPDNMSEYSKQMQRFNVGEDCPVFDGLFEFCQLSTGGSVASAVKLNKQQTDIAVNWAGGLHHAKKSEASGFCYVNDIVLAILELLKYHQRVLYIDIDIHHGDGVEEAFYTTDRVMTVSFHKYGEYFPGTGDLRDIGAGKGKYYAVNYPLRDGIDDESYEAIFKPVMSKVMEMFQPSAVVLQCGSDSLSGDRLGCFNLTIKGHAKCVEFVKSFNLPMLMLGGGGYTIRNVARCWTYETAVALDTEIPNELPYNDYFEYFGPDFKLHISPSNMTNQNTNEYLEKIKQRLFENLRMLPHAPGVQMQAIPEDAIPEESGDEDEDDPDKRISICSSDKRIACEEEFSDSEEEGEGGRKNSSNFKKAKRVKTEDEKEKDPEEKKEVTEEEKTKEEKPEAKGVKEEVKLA
T3 sequence (Q92769 whole entry): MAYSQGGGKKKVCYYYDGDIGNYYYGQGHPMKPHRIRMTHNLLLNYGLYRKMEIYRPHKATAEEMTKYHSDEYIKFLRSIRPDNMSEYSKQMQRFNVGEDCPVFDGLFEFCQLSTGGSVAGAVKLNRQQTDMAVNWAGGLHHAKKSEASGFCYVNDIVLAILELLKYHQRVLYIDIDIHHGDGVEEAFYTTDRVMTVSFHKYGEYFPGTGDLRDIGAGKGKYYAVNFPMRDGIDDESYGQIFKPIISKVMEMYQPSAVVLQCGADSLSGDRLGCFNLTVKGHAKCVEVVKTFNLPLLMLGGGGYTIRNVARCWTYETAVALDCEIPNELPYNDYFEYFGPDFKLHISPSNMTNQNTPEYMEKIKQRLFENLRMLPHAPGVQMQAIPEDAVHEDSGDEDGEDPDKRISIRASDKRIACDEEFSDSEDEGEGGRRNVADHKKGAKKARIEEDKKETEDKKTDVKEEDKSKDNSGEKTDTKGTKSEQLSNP

## COc1cc(/C=C/C(=O)c2ccc(NC(=O)c3ccccc3CN3C(=O)c4ccccc4C3=O)cc2)cc(OC)c1OC
MCF7 [1]
  IC50: 1880 nM
HepG2
  IC50: 1620 nM
Tubulin [2]
  IC50: 2320 nM

## COc1ccc(-c2cccc(-c3cc(OC)c(OC)c(OC)c3)n2)cc1CCC(=O)NO
Tubulin [2]
  IC50: 117 nM

## COc1cc([C@@H]2c3cc4c(cc3C[C@H]3COC(=O)[C@@H]32)OCO4)cc(OC)c1OC(=O)CC(=O)NCc1ccc(C(=O)Nc2ccccc2N)cc1
A549 [3]
  IC50: 40 nM

## CNC(=O)CCCCOc1nc(-c2ccc(OC)cc2)cc(-c2cc(OC)c(OC)c(OC)c2)c1C#N
Histone deacetylase 1 [4]
  IC50: 73.2 nM
[5]
  IC50: 84 nM
Tubulin [6]
  IC50: 3520 nM
UO-31
  IC50: 3520 nM
T47D
  IC50: 5500 nM

## COc1cccc(C(=O)c2oc3cc(OC)c(C#CC(=O)NO)cc3c2C)c1
[7]
  IC50: 420 nM

## COc1ccc(CN(C(=O)CC2CCC(C(=O)Nc3ccccc3N)CC2)c2cc(OC)c(OC)c(OC)c2)cc1O (stereo not given)
MGC-803
  IC50: 39 nM
KYSE-450
  IC50: 254 nM
Histone deacetylase 1 [8]
  IC50: 525 nM
Tubulin [2]
  IC50: 3640 nM
HCT-116 [9]
  IC50: 172 nM

## COc1ccc(-c2ocnc2-c2cc(Br)c(OC)c(OC)c2)cc1OCCCC(=O)NO
518A2
  IC50: 710 nM

## COc1ccc2c(C(=O)c3cc(OC)c(OC)c(OO)c3)c[nH]c2c1
Tubulin [2]
  IC50: 2800 nM

## COc1ccc(N(C)c2nc(C)nc3ccccc23)cc1OCCCC(=O)NO
A2780
  inhibition in vivo at 25 mg/kg: 77.4%
HCT-116 [10]
  inhibition in vivo at 25 mg/kg: 60.4%
MCF7 [11]
  inhibition in vivo at 25 mg/kg: 50.5%

## COc1ccc2c(C)c(C(=O)c3cc(OC)c(OC)c(OC)c3)oc2c1
Tubulin [2]
  IC50: 620 nM

## COc1cc([C@@H]2c3cc4c(cc3C[C@H]3COC(=O)[C@@H]32)OCO4)cc(OC)c1OC(=O)CC(=O)Nc1ccc(C(=O)Nc2ccccc2N)cc1
Histone deacetylase 2 [12]
  IC50: 1730 nM

## COc1ccc(-c2cccc(-c3cc(OC)c(OC)c(OC)c3)n2)cc1O
Tubulin (Homo sapiens)
  inhibition: 32%

## COc1ccc2c(C(=O)c3cc(OC)c(OC)c(OO)c3)cn(Cc3ccc(C(=O)NO)cc3)c2c1
[13]
  IC50: 65 nM
Histone deacetylase 2 [14]
  IC50: 1410 nM
Homo sapiens [15]
  Ratio IC50: 21.8
Homo sapiens [16]
  Ratio IC50: 8.89
Histone deacetylase 1 [17]
  IC50: 573 nM

## COc1ccc2c(C(=O)c3cc(OC)c(OC)c(OO)c3)cn(S(=O)(=O)c3cccc(/C=C/CC(=O)NO)c3)c2c1
HL-60
  inhibition in vivo at 100 mg/kg: 40.9%
[18]
  IC50: 276 nM
A549 [19]
  IC50: 73 nM
HCT-116 [20]
  IC50: 44 nM
PC-3 [21]
  inhibition in vivo at 100 mg/kg: 31.1%
PC-3 [22]
  IC50: 33 nM
